Data as given in US12054471B2, “Thiocycloheptyne derivatives and their use” (Cristal Delivery B.V., priority 2018, dated 2024).

Legend:
[1] = Reaction kinetics of model click reaction with benzylazide, measured by NMR (CDCl3); format: physicochemical
Method: The alkyne (TMTSHI or BCN-OH) was reacted with 1.3 eq benzylazide and reaction kinetics were measured using NMR (CDCl3). Conversion of TMTHSI with benzyl azide reached 79% after 225 seconds, the reaction with BCN-OH took about 40-fold longer (9312 seconds). The reaction conversion (%) is calculated based on triazole signals, taking the plateau of triazole signal at the end of reaction as 100% level=when all TMTHSI or BCN-OH fully reacted with benzylazide. The results of the measurements are included in FIG. 17A.

[2] = Reaction kinetics with benzylazide monitored by QTOF-ESI mass spectrometry to determine rate constant kt; format: physicochemical; details: 1.0 eq benzylazide, ACN/water/acetic acid (3:1:0.01%), MS
Method: The kt value for the conversion of benzylazide with BCN-OH and TMTHSI was investigated by monitoring the reactions via mass spectrometry. In this study, QTOF mass spectrometry with an ESI source coupled to it, was utilized as a method of measurements. In detail, the alkyne (TMTSHI or BCN-OH in ACN/water/acetic acid (3:1:0.01%) was reacted with 1.0 eq benzylazide and reaction kinetics were measured using MS. The results of the measurements are included in FIG. 55. The measured kt value for TMTHSI in the reaction with benzylazide is 0.83 M^−1S^−1, which is approximately 7 times faster than BCN-OH (0.12 M^−1S^−1).

[3] = Storage stability as a powder, checked by 1H-NMR and LC/MS; format: physicochemical; details: stored as a powder at both light and dark locations under atmospheric pressure; 1H-NMR and LC/MS (SC_BASE)
Excerpt: TMTHSI was proven to be stable during storage.

[4] = Dommerholt et al.; cited from earlier work

Structure (SMILES)	time to reach 79% conversion with benzyl azide ([1]; 1.3 eq benzylazide, CDCl3, NMR) [s]	kt value in the reaction with benzylazide [2] [M^−1S^−1]	compound still in tact after storage [3] [months]	also measured
OCC1[C@H]2CCC#CCC[C@@H]12 (some centres unmarked) [BCN-OH, reference compound]	9312	0.12		reaction time relative to TMTHSI (fold longer) ([1]; 1.3 eq benzylazide, CDCl3, NMR): about 40 fold
CC1(C)C#CC(C)(C)CS(=N)(=O)C1 [Compound 3, 1-imino-3,3,6,6-tetramethyl-4,5-didehydro-2,3,6,7-tetrahydro-1H-1λ^6-thiepine 1-oxide]	225	0.83	≥ 10	Conversion with benzyl azide ([1]; after 225 seconds, 1.3 eq benzylazide, CDCl3, NMR, based on triazole signals): 79%; comparison of reaction kinetics with BCN-OH (FIG. 17A) ([1]; reaction with benzylazide, NMR): significantly faster than BCN-OH; rate relative to BCN-OH (times faster) [2]: approximately 7 times
CC1(C)C#CC(C)(C)CS(=O)(=NC(=O)ON2C(=O)CCC2=O)C1 [Compound 12, 2,5-dioxopyrrolidin-1-yl (3,3,6,6-tetramethyl-1-oxido-4,5-didehydro-2,3,6,7-tetrahydro-1λ^6-thiepan-1-ylidene)carbamate]			≥ 4	
CC1(C)C#CC(C)(C)CSC1 [TMTH, 3,3,6,6-tetramethylthiacycloheptyne]				stability of TMTH [4]: poor stability
